Several values for one entry are separate records, joined by “and”; a condition that tells them apart may be missing. Equal values may be shown once.

Results on 28 molecules are retold here after ChEMBL document CHEMBL5724696, “Autophagy assay results for EUbOPEN Chemogenomics Library” (2024).

The assay deals with TERT-RPE1. Briefly: Here: values are normalized to the negative (DMSO; defined as 0% autophagy induction) and positive (250nM Torin1; mTOR inhibitor; defined as maximal inducer of autophagy = 100%) control compounds and represented as % of autophagy induction. […] The impact of autophagy induction on cells is complex and depends on the affected target. As such, the magnitude of a phenotype may not be equally mirrored in the %-value of autophagy induction and vice versa. The dynamics of the induction may indicate the mode of activation: e.g. activation via phosphorylation or a signaling cascade may occur fast, while activation via transcription factors may take considerably longer. […] Of note, treatment concentrations may be sub-optimal for specific compounds, leading to false negative annotations. It is filed as functional, Homo sapiens. Particulars: Compound Concentration 1 uM, Culturing Media DMEM/F12 (1:1), 1 % Penicillin/Streptomycin, 10% Fetal bovin serum Add-On: No, Screening Media Control DMEM/F12 (1:1), Screening Media Samples DMEM/F12 (1:1).

On to `CC(C=CC1=C(C)CCCC1(C)C)=CC=CC(C)=CC(=O)O`, for which the autophagy induction is, setting by setting: (Timepoint 12 hours) -29.8215%; (Timepoint 24 hours) -16.487%; (Timepoint 36 hours) 10.9979%; (Timepoint 60 hours) 39.1731%.
On the same counts, the results for `COc1ccc(-c2ccc3cc(C(=O)O)ccc3c2)cc1C12CC3CC(CC(C3)C1)C2` are -16.1508%, -22.2133%, -14.1287% and 30.465%.
On the same counts, the results for `Cc1cccc(CN2CCN(C(c3ccccc3)c3ccc(Cl)cc3)CC2)c1.Cl.Cl` (configuration not stated) are 89.2215%, -0.434%, 13.2807% and -24.9822%.
Consider `CCCc1c(OCCCOc2ccc(OCC(=O)O)cc2)ccc(C(C)=O)c1O`, for which the autophagy induction reads like this: (Timepoint 12 hours) -6.598%; (Timepoint 24 hours) -4.053%; (Timepoint 36 hours) -2.5514%; (Timepoint 60 hours) -8.413%.
On the same counts, the results for `CCOC(=O)Nc1ccc2c(c1)N(C(=O)CN(CC)CC)c1ccccc1CC2` are -0.6682%, 2.4649%, 6.3561% and 1.708%.
On the same counts, the results for `CN(CCOc1ccc(C[C@H](Nc2ccccc2C(=O)c2ccccc2)C(=O)O)cc1)c1ccccn1.O` are -1.212%, -2.25%, 0.5142% and -9.85%.
On to `OC(c1ccc(-c2ccc(CN3CCN(Cc4ccncc4)CC3)cc2)c(F)c1)(C(F)(F)F)C(F)(F)F`, for which the autophagy induction runs as follows: (Timepoint 12 hours) -2.122%; (Timepoint 24 hours) -7.771%; (Timepoint 36 hours) -2.839%; (Timepoint 60 hours) 2.172%.
For the molecule `COc1cc(O)c(C(CC(=O)N2C[C@H](C)C[C@H](C)C2)c2ccc3c(c2)OCO3)c(OC)c1` (some centres not stated), the autophagy induction was -12.9989% and -4.38% (Timepoint 12 hours, 12 h, 1 µM); -0.5632% and -3.782% (Timepoint 24 hours, 24 h, 1 µM); 12.4792% and 2.693% (Timepoint 36 hours, 36 h, 1 µM); -12.6071% and -5.875% (Timepoint 60 hours, 60 h, 1 µM).
`O=C(Nc1ccc(C(O)(C(F)(F)F)C(F)(F)F)cc1)c1ccc(C(F)(F)F)cc1`: the autophagy induction by setting is: (Timepoint 12 hours) 1.9218%; (Timepoint 24 hours) 1.011%; (Timepoint 36 hours) 4.384%; (Timepoint 60 hours) 2.099%.
On the same counts, the results for `CC(=O)Nc1nc(C)c(S(=O)(=O)Nc2ccc(C(O)(C(F)(F)F)C(F)(F)F)cc2)s1` are 4.3226%, 10.3847%, 21.8693% and -92.7489%.
On the same counts, the results for `CC(C)c1onc(-c2c(Cl)cccc2Cl)c1COc1ccc(/C=C/c2cccc(C(=O)O)c2)c(Cl)c1` are -17.7139%, -8.477%, 8.951% and -22.8602%.
As for `O=S(=O)(Nc1ccc(C(O)(C(F)(F)F)C(F)(F)F)cc1)c1cccs1`, the autophagy induction is, setting by setting: (Timepoint 12 hours) 37.5142%; (Timepoint 24 hours) -2.586%; (Timepoint 36 hours) 11.7189%; (Timepoint 60 hours) -15.4416%.
In the same order, the values of `COc1cccc(Cn2cc(C(=O)Nc3ccc(C)c(S(=O)(=O)N4CCOCC4)c3)c(-c3ccc(C)cc3)n2)c1` are -3.785%, -6.106%, -1.342% and -4.917%.
On the same counts, the results for `Cc1cc(SCc2sc(-c3ccc(C(F)(F)F)c(F)c3)nc2C)ccc1OCC(=O)O` are -0.9501%, -2.27%, 3.329% and -6.099%.
For the molecule `Cl.O=C(O)Cc1cccc(OCCCN(Cc2cccc(C(F)(F)F)c2Cl)CC(c2ccccc2)c2ccccc2)c1`, the autophagy induction by setting is: (Timepoint 12 hours) -4.945%; (Timepoint 24 hours) -7.042%; (Timepoint 36 hours) -10.7668%; (Timepoint 60 hours) -6.3424%.
On the same counts, the results for `CC(C)C(=O)N1CCC(c2cn(C)c3ncc(NC(=O)c4cccc(C#N)c4)c(C(F)(F)F)c23)CC1` are -17.3669%, -7.8656%, 13.4062% and -15.2604%.
On the same counts, the results for `CC(C)c1ccc(CC(=O)N2CCC[C@@H](c3cccc(OC(C)(C)C(=O)O)c3)C2)cc1` are 2.269%, -2.988%, 2.286% and -0.7623%.
In the case of `COC(=O)C(Cc1ccc(OCCn2c(=O)sc3cc(C(=O)c4ccccc4)ccc32)cc1)C(=O)OC`, the autophagy induction runs as follows: (Timepoint 12 hours) -14.8184%; (Timepoint 24 hours) -7.449%; (Timepoint 36 hours) 12.2337%; (Timepoint 60 hours) -20.3416%.
In the same order, the values of `Clc1ccc(-c2nc3sccn3c2/C=N/OCc2ccc(Cl)c(Cl)c2)cc1` are -153.599%, -9.053%, 9.503% and -19.9955%.
On the same counts, the results for `CCOP(=O)(OCC)C(=Cc1cc(C(C)(C)C)c(O)c(C(C)(C)C)c1)P(=O)(OCC)OCC` are -14.535%, -0.01812%, 17.6383% and -21.9097%.
On the same counts, the results for `CCOC(=O)C1Cc2ccccc2CN1C(=O)c1ccc(SC)s1` (configuration not stated) are 141.578%, -7.836%, 8.933% and -16.4137%.
For the molecule `CC1(C)C(=O)C(C)(C)c2cc(C(=O)Nc3ccc(C(=O)O)cc3)ccc21`, the autophagy induction is, setting by setting: (Timepoint 12 hours) -15.7037%; (Timepoint 24 hours) -5.578%; (Timepoint 36 hours) 15.5375%; (Timepoint 60 hours) -28.4557%.
In the same order, the values of `C[C@H](CCOc1cccc(CC(=O)O)c1)N(Cc1cccc(C(F)(F)F)c1Cl)CC(c1ccccc1)c1ccccc1.Cl` are -13.5866%, 1.703%, 15.8521% and -16.0779%.
For `CCO[C@H](COc1ccc(C(F)(F)F)cc1)CSc1ccc(OCC(=O)[O-])c(C)c1.[Na+]`, the autophagy induction by setting is: (Timepoint 12 hours) 0.706%; (Timepoint 24 hours) -0.6859%; (Timepoint 36 hours) 2.912%; (Timepoint 60 hours) 3.397%.
In the same order, the values of `CN1CCN(c2ccc(/C=C(\C#N)c3ccccc3Br)cc2)CC1.Cl.Cl` are -7.74%, -11.503%, -8.5159% and 1.827%.
On the same counts, the results for `COC(=O)c1sccc1S(=O)(=O)Nc1ccc(Nc2ccccc2)cc1OC` are -12.2106%, -1.2%, 15.0919% and -15.7117%.
In the same order, the values of `O=C(NCCS(=O)(=O)c1ccc(C(F)(F)F)cn1)c1ccc(Cl)cc1` are -3.2973%, -5.225%, 0.4695% and 10.0166%.
As for `CC1(C)CCC(C)(C)c2cc(C(=O)Nc3ccc(C(=O)O)cc3)ccc21`, the autophagy induction reads like this: (Timepoint 12 hours) -16.8061%; (Timepoint 24 hours) -23.3221%; (Timepoint 36 hours) -14.7294%; (Timepoint 60 hours) 28.5347%.
